# Measurements from publication PMC13164762, “Development and Validation of an LC-MS/MS Method for the Quantitation of JNJ-64619178 (JNJ) in Mouse Plasma: Characterization of In Vitro and In Vivo Pharmacokinetic Properties” (Molecules, 2026).
# Where “and” joins values, the source holds several entries; their conditions need not be identical. Equal values may be shown once. Read-outs that look alike come from different tables or passages of the source.
# Tests used:
# [1] = Stability of JNJ in mouse plasma at different storage conditions; type: in vitro ADME
# Description: The stability of JNJ in mouse plasma was evaluated at three replicates of LQC and HQCs in different storage conditions. Studies were conducted with the study of bench-top stability for 4 h at room temperature, freeze–thaw stability (three freeze–thaw cycles), autosampler stability (4 °C for 48 h) and long-term stability (at −80 °C for 1 month). Samples were considered stable if the % drug remaining after storage conditions was within ±15% compared to the freshly prepared QC samples.
# [2] = Microsomal metabolic stability, mouse liver microsomes; type: in vitro ADME
# Description: Mouse and human liver microsomes were used for the metabolic stability assay. In brief, the incubation mixture (500 µL) consisted of phosphate-buffered saline (PBS) (100 mM, pH 7.4), microsomal protein (0.5 mg mL^−1), magnesium chloride (10 mM), and NADPH (2 mM). Following pre-incubation of the above reaction mixture for 10 min at 37 °C, the reaction was initiated by spiking JNJ at a final 1 µg mL^−1 concentration. Alongside the test compound, testosterone at a final concentration of 1 µg mL^−1 was incubated as a positive control. All experiments were performed in triplicate. At sampling times of 0, 5, 10, 20, 30, 45, and 60 min, 40 µL samples were collected and quenched with 300 µL ice-chilled acetonitrile supplemented with 10 µL IS. Simultaneously, samples from NADPH-free negative controls were also withdrawn and processed accordingly to confirm any non-enzymatic degradation. Finally, after 1 h of collection, samples were vortexed at 1000 rpm for 1 min and centrifuged at 2200× g for 15 min, and the collected supernatant was analyzed using LC-MS/MS.
# The natural logarithm of the area ratio versus time was plotted, and the slope of the curve was calculated by a linear regression equation to generate the elimination rate constant, k (min^−1). CLint was calculated by the following equation:(2) CLint=0.693/t1/2×Volume of incubation mixture (mL)/microsomal protein (mg)
# CLH,int of JNJ in the mouse and human liver was then estimated from CLint using the scaling factor.(3) CLH,int=CLint×Microsomal protein (mg)/Liver (g)×Liver weight (g)/Body weight (kg)
# Here, 45 and 32 mg of microsomal protein per g of liver weight were applied, and 60 and 25 g of liver weight per kg body weight were used for mouse and human tissue, respectively.
# Then, CLH,int was corrected for microsomal binding (CLH,int/fu,inc) and CLH,predict was predicted using the well-stirred model by the following equation:(4) CLH,predict=Q × fu,plasma×CLH,int/fu,inc /Q + fu,plasma×CLH,int/fu,inc
# Here, Q is the hepatic blood flow (90 mL min^−1 kg^−1 in mouse), fu,plasma is the fraction unbound in plasma, fu,inc is the fraction unbound in microsomal incubation and CLH,int is included from Equation (3); fu,inc was calculated by adding logP of JNJ (2.3) to the following equation:(5) fu,inc=1/1 + 10^0.53 logP − 1.42
# [3] = Biodistribution and brain penetration after PO dose; type: in vivo, balb/c mice; conditions: for concentration at 2 h / concentration at 8 h / concentration at 24 h: po
# Description: Mouse plasma and tissue samples (liver, spleen, kidney, lung and brain) were prepared following the SPE procedure. Collected tissues were homogenized using Tissue Lyser II purchased from Qiagen Science, KY, after adding four times as much water as the tissue mass. For calibration standards and QC sample preparation, the 10 µL working stock and IS were spiked into 100 µL mouse plasma or tissue homogenates (liver, spleen, kidney, lung, and brain). After vortexing for 30 s on a Mixmate (Eppendorf North America, Enfield, CT, USA), samples were diluted with 600 µL of 5% formic acid and vortexed again at 1000 rpm for 2 min. Samples were centrifuged at 956× g for 10 min to get a clear sample that was not prone to blocking the cartridge during the SPE. Extraction was initiated by conditioning the cartridge (Oasis HLB 1 cc, Waters, Millford, MA, USA) with 1 mL of methanol, followed by a second conditioning with 1 mL of water. Then, the above-prepared samples were loaded into the cartridge and allowed to pass through the cartridge. Next, the cartridge was washed with 1 mL 15% methanol and dried for 1 min prior to the elution. For final elution, 500 µL 5% ammonium hydroxide in acetonitrile was eluted through the cartridges twice. Collected eluates were dried in a nitrogen dryer and reconstituted with 200 µL of mobile phase. Reconstituted samples were centrifuged at 956× g for 10 min, 150 µL supernatants were collected, and 5 µL was injected for LC-MS/MS.
# For the oral PK study, male balb/C mice were grouped into two groups, with n = 4 for each group. Throughout the experiment, mice had free access to adequate food and water. The oral solution comprised 20% (v/v) polyethylene glycol 400, 10% (v/v) propylene glycol, 10% (v/v) ethanol, 2% (v/v) DMSO, 5% cremophore, and water as the rest of the volume. For the IV dose administration, 12 male balb/C mice were used in the study, divided into two groups. The IV solution used the same composition as the oral study. Doses of 10 and 2.5 mg kg^−1 were used for oral and IV routes, respectively. Blood samplings were done at 5 min, 15 min, 30 min, 1 h, 2 h, 4 h, 8 h, and 24 h. After collection, blood samples were centrifuged immediately at 956× g for 10 min, and plasma was separated in an Eppendorf tube and stored at −80 °C until processed. In the oral PK study, tissues—liver, kidney, spleen, lung, and brain—were collected at 2, 8, and 24 h to assess the biodistribution pattern of JNJ in the oral route.
smiles,measurement,setting,value
"Nc1nc2cc(CC[C@H]3C[C@@H](n4ccc5c(N)ncnc54)[C@H](O)[C@@H]3O)ccc2cc1Br [JNJ, JNJ-64619178]","% Stability Recoveries (Mean ± SD), Autosampler (4 °C, 48 h)",[1]; HQC (375 ng mL^−1),110 ± 6%
same,"% Stability Recoveries (Mean ± SD), Bench-Top (RT, 4 h)",[1]; HQC (375 ng mL^−1),101 ± 15%
same,"% Stability Recoveries (Mean ± SD), Freeze–Thaw (−80 ± 5 °C After 3 Cycle)",[1]; HQC (375 ng mL^−1),94 ± 8%
same,"% Stability Recoveries (Mean ± SD), Long-Term Stability (−80 ± 5 °C, 30 Days)",[1]; HQC (375 ng mL^−1),95 ± 8%
same,"% Stability Recoveries (Mean ± SD), Autosampler (4 °C, 48 h)",[1]; LQC (0.5 ng mL^−1),110 ± 7%
same,"% Stability Recoveries (Mean ± SD), Bench-Top (RT, 4 h)",[1]; LQC (0.5 ng mL^−1),91 ± 9%
same,"% Stability Recoveries (Mean ± SD), Freeze–Thaw (−80 ± 5 °C After 3 Cycle)",[1]; LQC (0.5 ng mL^−1),93 ± 4%
same,"% Stability Recoveries (Mean ± SD), Long-Term Stability (−80 ± 5 °C, 30 Days)",[1]; LQC (0.5 ng mL^−1),97 ± 9%
same,microsomal intrinsic clearance (CLint),"[2]; MLM, mean ± SD, n = 3",0.02 ± 0.01 mL min^−1 mg^−1 protein
same,"hepatic intrinsic clearance (CLH,int)","[2]; MLM, scaled from CLint (45 mg protein/g liver, 60 g liver/kg)",41 ± 19 mL min^−1 kg^−1 body weight
same,"predicted in vivo hepatic clearance (CLH,predict)","[2]; mice, in vitro scaling, well-stirred model",1.6 mL min^−1 kg^−1 body weight and 1.6 ± 0.7 mL min^−1 kg^−1 body weight
same,half-life at 1 µg mL^−1,"[2]; mouse, liver microsomes, pH 7.4, MLM, mean ± SD, n = 3, read-out: Half-life (t1/2)",101 ± 39 min
same,"remaining at 1 h, 1 µg mL^−1","[2]; mouse, liver microsomes, pH 7.4, MLMs, NADPH, 1 µg mL^−1, n = 3, read-out: percent remaining concentration after 1 h incubation",60 ± 12%
same,Brain Content,"[3]; 2 h after single PO 10 mg kg^−1, balb/c mice, n = 4",55 ng/g
same,Brain Content,"[3]; 8 h after single PO 10 mg kg^−1, balb/c mice, n = 4",34 ng/g
same,Brain Content,"[3]; 24 h after single PO 10 mg kg^−1, balb/c mice, n = 4",23 ng/g
same,"unbound plasma and brain concentrations/contents, fold lower than in vitro IC50","[3]; across all time points, PO 10 mg kg^−1",more than 20 fold
same,concentration at 2 h,"[3]; male, BALB/c, mouse, brain, 10 mg kg^−1, 2 h, PO 10 mg kg^−1, estimated with fu,brain = 0.057, read-out: Unbound Brain Content",3.1 ng/g
same,concentration at 2 h,"[3]; male, BALB/c, mouse, brain, 10 mg kg^−1, 2 h after single PO 10 mg kg^−1, balb/c mice, n = 4, read-out: Brain Content",55 ± 27 ng/g
same,concentration at 8 h,"[3]; male, BALB/c, mouse, brain, 10 mg kg^−1, 8 h, PO 10 mg kg^−1, estimated with fu,brain = 0.057, read-out: Unbound Brain Content",1.9 ng/g
same,concentration at 8 h,"[3]; male, BALB/c, mouse, brain, 10 mg kg^−1, 8 h after single PO 10 mg kg^−1, balb/c mice, n = 4, read-out: Brain Content",34 ± 1 ng/g
same,concentration at 24 h,"[3]; male, BALB/c, mouse, brain, 10 mg kg^−1, 24 h, PO 10 mg kg^−1, estimated with fu,brain = 0.057, read-out: Unbound Brain Content",1.3 ng/g
same,concentration at 24 h,"[3]; male, BALB/c, mouse, brain, 10 mg kg^−1, 24 h after single PO 10 mg kg^−1, balb/c mice, n = 4, read-out: Brain Content",23 ± 3 ng/g
same,concentration at 8 h,"[3]; male, BALB/c, mouse, kidney, 10 mg kg^−1, 8 h after single PO 10 mg kg^−1, balb/c mice, n = 4, read-out: Content, Kidney",474 ± 131 ng/g
same,concentration at 24 h,"[3]; male, BALB/c, mouse, kidney, 10 mg kg^−1, 24 h after single PO 10 mg kg^−1, balb/c mice, n = 4, read-out: Content, Kidney",56 ± 27 ng/g
same,concentration at 8 h,"[3]; male, BALB/c, mouse, liver, 10 mg kg^−1, 8 h after single PO 10 mg kg^−1, balb/c mice, n = 4, read-out: Content, Liver",1190 ± 167 ng/g
same,concentration at 24 h,"[3]; male, BALB/c, mouse, liver, 10 mg kg^−1, 24 h after single PO 10 mg kg^−1, balb/c mice, n = 4, read-out: Content, Liver",52 ± 31 ng/g
same,concentration at 2 h,"[3]; male, BALB/c, mouse, lung, 10 mg kg^−1, 2 h after single PO 10 mg kg^−1, balb/c mice, n = 4, read-out: Content, Lung",2570 ± 550 ng/g
same,concentration at 8 h,"[3]; male, BALB/c, mouse, lung, 10 mg kg^−1, 8 h after single PO 10 mg kg^−1, balb/c mice, n = 4, read-out: Content, Lung",599 ± 91 ng/g
same,concentration at 24 h,"[3]; male, BALB/c, mouse, lung, 10 mg kg^−1, 24 h after single PO 10 mg kg^−1, balb/c mice, n = 4, read-out: Content, Lung",45 ± 25 ng/g
same,concentration at 2 h,"[3]; male, BALB/c, mouse, plasma, 10 mg kg^−1, 2 h, PO 10 mg kg^−1, balb/c mice, read-out: Plasma Concentration",1470 ng/mL
same,concentration at 2 h,"[3]; male, BALB/c, mouse, plasma, 10 mg kg^−1, 2 h, PO 10 mg kg^−1, estimated with fu,plasma = 0.025, read-out: Unbound Plasma Concentration",37 ng/mL
same,concentration at 8 h,"[3]; male, BALB/c, mouse, plasma, 10 mg kg^−1, 8 h, PO 10 mg kg^−1, balb/c mice, read-out: Plasma Concentration",93 ng/mL
same,concentration at 8 h,"[3]; male, BALB/c, mouse, plasma, 10 mg kg^−1, 8 h, PO 10 mg kg^−1, estimated with fu,plasma = 0.025, read-out: Unbound Plasma Concentration",2.3 ng/mL
same,concentration at 24 h,"[3]; male, BALB/c, mouse, plasma, 10 mg kg^−1, 24 h, PO 10 mg kg^−1, balb/c mice, read-out: Plasma Concentration",1.6 ng/mL
same,concentration at 24 h,"[3]; male, BALB/c, mouse, plasma, 10 mg kg^−1, 24 h, PO 10 mg kg^−1, estimated with fu,plasma = 0.025, read-out: Unbound Plasma Concentration",0.04 ng/mL
same,concentration at 2 h,"[3]; male, BALB/c, mouse, spleen, 10 mg kg^−1, 2 h after single PO 10 mg kg^−1, balb/c mice, n = 4, read-out: Content, Spleen",1900 ± 220 ng/g
same,concentration at 8 h,"[3]; male, BALB/c, mouse, spleen, 10 mg kg^−1, 8 h after single PO 10 mg kg^−1, balb/c mice, n = 4, read-out: Content, Spleen",643 ± 58 ng/g
same,concentration at 24 h,"[3]; male, BALB/c, mouse, spleen, 10 mg kg^−1, 24 h after single PO 10 mg kg^−1, balb/c mice, n = 4, read-out: Content, Spleen",95 ± 25 ng/g
same,concentration at 2 h,"[3]; male, balb/c, mouse, kidney, 10 mg kg^−1, 2 h after single PO 10 mg kg^−1, balb/c mice, n = 4, read-out: Content, Kidney",2950 ± 822 ng/g
same,concentration at 2 h,"[3]; male, balb/c, mouse, liver, 10 mg kg^−1, 2 h after single PO 10 mg kg^−1, balb/c mice, n = 4, read-out: Content, Liver",6070 ± 1500 ng/g
same,Kp uu at 2 h,"[3]; male, mouse, brain, 2 h, PO 10 mg kg^−1, balb/c mice, read-out: Kp,uu,brain (unbound brain-to-plasma partition coefficient)",0.08
same,Kp uu at 8 h,"[3]; male, mouse, brain, 8 h, PO 10 mg kg^−1, balb/c mice, read-out: Kp,uu,brain (unbound brain-to-plasma partition coefficient)",0.82
same,Kp uu at 24 h,"[3]; male, mouse, brain, 24 h, PO 10 mg kg^−1, balb/c mice, read-out: Kp,uu,brain (unbound brain-to-plasma partition coefficient)",33.3
